Test [1] concerns the target T1, Serine/threonine-protein kinase haspin (Homo sapiens) (UniProt Q8TF76).
T1 sequence (whole entry): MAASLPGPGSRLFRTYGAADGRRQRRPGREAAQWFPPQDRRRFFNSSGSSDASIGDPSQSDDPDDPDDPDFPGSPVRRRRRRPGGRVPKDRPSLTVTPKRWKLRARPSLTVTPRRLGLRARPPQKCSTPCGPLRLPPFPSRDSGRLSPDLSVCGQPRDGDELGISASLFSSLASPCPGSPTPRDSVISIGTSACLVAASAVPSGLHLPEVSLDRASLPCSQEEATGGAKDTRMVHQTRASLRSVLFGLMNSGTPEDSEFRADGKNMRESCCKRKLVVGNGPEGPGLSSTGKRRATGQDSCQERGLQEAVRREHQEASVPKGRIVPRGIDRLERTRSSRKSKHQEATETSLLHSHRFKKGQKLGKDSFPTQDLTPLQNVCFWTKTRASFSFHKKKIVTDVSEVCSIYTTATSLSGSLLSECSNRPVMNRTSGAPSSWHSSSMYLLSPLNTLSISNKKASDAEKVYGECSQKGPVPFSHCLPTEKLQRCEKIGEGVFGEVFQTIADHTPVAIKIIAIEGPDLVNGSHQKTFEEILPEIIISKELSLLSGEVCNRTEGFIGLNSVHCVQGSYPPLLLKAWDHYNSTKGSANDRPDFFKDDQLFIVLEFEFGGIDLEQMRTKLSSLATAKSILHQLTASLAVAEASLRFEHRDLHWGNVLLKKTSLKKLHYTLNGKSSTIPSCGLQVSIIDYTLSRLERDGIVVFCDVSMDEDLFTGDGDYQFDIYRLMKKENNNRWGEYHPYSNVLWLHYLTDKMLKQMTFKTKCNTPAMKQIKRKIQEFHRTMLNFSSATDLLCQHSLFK
Nature of the test: Inhibition of human recombinant Haspin at 40 nM related to control ULK1.

The target in test [2] is T2, Ephrin type-B receptor 4 (Homo sapiens) (UniProt P54760).
T2 sequence (whole entry): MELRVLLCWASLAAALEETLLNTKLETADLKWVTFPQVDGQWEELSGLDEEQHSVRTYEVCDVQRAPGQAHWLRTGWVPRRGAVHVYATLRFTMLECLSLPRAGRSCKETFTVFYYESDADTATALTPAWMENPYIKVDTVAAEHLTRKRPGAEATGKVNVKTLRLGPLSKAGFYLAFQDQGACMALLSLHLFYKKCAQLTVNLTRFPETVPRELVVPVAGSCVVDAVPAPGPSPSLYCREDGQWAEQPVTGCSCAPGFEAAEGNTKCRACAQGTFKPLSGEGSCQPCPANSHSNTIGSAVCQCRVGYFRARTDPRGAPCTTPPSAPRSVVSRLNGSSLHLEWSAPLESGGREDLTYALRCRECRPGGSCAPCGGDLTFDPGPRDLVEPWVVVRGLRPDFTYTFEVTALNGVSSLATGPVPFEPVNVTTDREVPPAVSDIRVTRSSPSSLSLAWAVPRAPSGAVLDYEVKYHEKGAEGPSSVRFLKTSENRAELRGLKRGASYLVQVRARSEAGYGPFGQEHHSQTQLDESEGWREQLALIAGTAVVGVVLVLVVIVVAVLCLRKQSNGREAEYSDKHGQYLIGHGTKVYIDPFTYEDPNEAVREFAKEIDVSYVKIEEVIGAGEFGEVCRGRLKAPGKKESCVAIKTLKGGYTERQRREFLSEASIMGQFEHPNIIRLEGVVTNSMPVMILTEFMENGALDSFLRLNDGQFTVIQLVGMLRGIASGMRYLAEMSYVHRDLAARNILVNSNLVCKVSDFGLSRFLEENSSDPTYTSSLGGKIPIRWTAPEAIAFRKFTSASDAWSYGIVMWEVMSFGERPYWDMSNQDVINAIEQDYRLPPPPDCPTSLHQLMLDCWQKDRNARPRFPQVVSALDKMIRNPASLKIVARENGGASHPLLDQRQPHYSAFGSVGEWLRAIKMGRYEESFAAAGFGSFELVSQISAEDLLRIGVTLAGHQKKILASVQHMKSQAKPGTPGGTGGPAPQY
Put plainly: Inhibition of human recombinant EphB4 at 40 nM related to control ULK1.

Test [3] concerns the target T3, Serine/threonine-protein kinase NLK (Homo sapiens) (UniProt Q9UBE8).
T3 sequence (whole entry): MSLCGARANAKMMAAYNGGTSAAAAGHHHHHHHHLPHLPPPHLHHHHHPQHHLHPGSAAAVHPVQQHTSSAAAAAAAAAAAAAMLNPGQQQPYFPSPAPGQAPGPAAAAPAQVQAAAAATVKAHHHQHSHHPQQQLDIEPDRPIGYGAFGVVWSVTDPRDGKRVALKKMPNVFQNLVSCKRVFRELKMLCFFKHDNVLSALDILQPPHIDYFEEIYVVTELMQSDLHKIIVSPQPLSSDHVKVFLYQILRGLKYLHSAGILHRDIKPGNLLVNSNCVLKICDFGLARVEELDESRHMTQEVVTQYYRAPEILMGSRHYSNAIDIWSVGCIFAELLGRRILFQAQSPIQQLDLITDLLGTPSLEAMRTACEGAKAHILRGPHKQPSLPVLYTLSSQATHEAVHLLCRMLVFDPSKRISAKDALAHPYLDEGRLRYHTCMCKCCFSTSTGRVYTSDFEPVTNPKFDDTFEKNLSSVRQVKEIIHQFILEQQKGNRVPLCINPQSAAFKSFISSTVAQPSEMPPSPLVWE
Nature of the test: Inhibition of human recombinant NLK at 40 nM in presence of ATP by radiometric assay relative to control.

The target in test [4] is Serine/threonine-protein kinase pim-1 (Homo sapiens) (UniProt P11309). Put plainly: Inhibition of human recombinant PIM1 at 500 nM related to control ULK1.
Serine/threonine-protein kinase pim-1 (Homo sapiens), sequence (P11309 whole entry, looked up, the tested form may be a part): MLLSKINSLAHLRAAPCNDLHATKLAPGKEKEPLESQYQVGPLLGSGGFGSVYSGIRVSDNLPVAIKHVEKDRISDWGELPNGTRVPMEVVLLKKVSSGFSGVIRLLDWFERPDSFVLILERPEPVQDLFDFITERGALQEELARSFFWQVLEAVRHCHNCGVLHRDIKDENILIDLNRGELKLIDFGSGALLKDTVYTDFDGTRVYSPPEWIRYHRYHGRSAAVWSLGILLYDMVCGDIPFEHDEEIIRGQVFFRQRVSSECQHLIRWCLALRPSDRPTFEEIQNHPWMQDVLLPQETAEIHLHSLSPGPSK
For test [5], the target named is PAS domain-containing serine/threonine-protein kinase (Homo sapiens) (UniProt Q96RG2). Put plainly: Inhibition of human recombinant PASK at 15 nM related to control ULK1.
PAS domain-containing serine/threonine-protein kinase (Homo sapiens), sequence (Q96RG2 whole entry, the tested form may be a part): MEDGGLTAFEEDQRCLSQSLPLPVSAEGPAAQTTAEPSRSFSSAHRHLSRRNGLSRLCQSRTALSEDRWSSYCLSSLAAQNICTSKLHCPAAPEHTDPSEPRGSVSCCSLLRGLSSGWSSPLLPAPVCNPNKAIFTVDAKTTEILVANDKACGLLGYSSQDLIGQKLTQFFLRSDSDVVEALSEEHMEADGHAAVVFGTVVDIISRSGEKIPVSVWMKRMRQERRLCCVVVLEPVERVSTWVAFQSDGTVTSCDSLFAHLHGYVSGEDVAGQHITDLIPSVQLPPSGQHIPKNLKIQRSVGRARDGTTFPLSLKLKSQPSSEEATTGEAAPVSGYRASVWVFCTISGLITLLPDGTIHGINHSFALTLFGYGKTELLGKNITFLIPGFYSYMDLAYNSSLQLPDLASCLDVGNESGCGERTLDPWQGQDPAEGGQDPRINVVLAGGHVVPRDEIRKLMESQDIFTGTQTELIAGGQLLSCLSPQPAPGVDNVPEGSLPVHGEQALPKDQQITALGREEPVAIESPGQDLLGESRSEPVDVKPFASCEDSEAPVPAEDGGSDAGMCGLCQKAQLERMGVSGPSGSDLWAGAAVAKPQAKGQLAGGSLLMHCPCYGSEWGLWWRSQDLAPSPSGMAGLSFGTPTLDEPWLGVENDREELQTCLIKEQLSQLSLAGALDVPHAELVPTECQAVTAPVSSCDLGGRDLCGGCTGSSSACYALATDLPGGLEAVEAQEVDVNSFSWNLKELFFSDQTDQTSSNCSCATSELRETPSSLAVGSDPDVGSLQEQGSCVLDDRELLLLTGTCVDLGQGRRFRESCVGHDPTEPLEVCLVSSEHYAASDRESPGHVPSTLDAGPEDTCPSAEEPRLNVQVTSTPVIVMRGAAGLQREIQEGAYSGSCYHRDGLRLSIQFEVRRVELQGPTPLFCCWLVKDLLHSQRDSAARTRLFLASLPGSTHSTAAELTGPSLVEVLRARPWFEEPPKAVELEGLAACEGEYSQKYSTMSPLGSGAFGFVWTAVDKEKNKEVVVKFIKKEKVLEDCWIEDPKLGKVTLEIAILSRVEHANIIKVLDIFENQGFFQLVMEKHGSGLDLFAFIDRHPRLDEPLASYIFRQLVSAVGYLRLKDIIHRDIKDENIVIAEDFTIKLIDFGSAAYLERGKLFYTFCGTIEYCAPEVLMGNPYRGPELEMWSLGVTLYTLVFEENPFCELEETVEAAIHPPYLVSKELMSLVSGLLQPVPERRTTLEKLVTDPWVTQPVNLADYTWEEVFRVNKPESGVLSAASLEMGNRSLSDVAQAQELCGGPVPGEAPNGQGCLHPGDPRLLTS

The term inhibition denotes the percentage by which the read-out fell short of the control.

With `O=C(N[C@@H](C1CC1)C(F)(F)F)c1cc(-c2cnn3cc(-c4ccc(F)cc4)cnc23)cs1`, the fold change (FC) in test [1] is 0.01; in test [2], 0. The inhibition in test [3] was determined as 47%. `CNC(=O)c1ccccc1Oc1nc(Nc2cc(OC)c(OC)c(OC)c2)ncc1Br`: the fold change (FC) in test [4] was determined as 0.03. Take `CC(C)[C@H](NC(=O)c1cc(-c2cnn3cc(-c4ccc(OCCN5CCCCC5)cc4)cnc23)cs1)C(F)(F)F`: the fold change (FC) in test [5] is 0.

The values above are taken from ChEMBL document CHEMBL5653631, “A Potent and Selective ULK1 Inhibitor Suppresses Autophagy and Sensitizes Cancer Cells to Nutrient Stress” (iScience, 2018).
